Source: ChEMBL document CHEMBL5247640 (J Med Chem, 2023)
Calls of active or inactive are those of the source. No cut-off for these calls is given here.

What was measured:
[1] = target: T1, Thyroid hormone receptor alpha (Homo sapiens, UniProt P10827); experiment: Agonist activity at human THRalpha transfected in Huh7 cells co-transfected with luciferase reporter plasmid assessed as […] luciferase activity incubated for 16 hrs by Steady-Glo luciferase assay; type: cell-based, Huh-7
T1 sequence (P10827 whole entry): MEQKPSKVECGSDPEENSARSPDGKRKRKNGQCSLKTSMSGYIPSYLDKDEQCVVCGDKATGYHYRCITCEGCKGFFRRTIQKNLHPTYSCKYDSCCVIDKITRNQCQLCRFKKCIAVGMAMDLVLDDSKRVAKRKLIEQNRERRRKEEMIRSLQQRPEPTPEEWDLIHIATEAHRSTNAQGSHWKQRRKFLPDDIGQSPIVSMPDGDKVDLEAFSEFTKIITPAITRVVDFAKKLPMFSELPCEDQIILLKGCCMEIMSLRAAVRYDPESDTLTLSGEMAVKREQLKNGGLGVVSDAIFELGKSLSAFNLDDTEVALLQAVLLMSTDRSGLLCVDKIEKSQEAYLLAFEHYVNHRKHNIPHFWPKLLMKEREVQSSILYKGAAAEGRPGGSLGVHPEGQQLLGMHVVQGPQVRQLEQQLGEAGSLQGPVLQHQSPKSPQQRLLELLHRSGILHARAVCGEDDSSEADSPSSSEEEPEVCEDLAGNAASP

[2] = target: T2, Thyroid hormone receptor beta (Homo sapiens, UniProt P10828); experiment: Agonist activity at human THRbeta transfected in Huh7 cells co-transfected with luciferase reporter plasmid assessed as […] luciferase activity incubated for 16 hrs by Steady-Glo luciferase assay; type: cell-based, Huh-7
T2 sequence (P10828 whole entry): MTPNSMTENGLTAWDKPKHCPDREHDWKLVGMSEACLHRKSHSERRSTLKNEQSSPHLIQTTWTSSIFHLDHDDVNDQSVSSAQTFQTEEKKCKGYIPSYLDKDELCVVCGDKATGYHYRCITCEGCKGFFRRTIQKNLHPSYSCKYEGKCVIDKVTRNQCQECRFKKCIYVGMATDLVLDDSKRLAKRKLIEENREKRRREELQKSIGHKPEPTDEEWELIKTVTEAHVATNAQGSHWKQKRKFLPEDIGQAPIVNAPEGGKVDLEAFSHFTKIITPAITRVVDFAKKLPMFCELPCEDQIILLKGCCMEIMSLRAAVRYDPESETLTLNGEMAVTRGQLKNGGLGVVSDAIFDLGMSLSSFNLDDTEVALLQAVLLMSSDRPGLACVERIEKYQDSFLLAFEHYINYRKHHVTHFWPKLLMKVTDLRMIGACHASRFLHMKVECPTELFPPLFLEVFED

[3] = Fold of selectivity, ratio of compound EC50/T3 EC50 for THRalpha to ratio of compound EC50/T3 EC50 for THRbeta
[4] = Half life in ICR mouse at 30 mg/kg, po measured after 24 hrs by LC-MS/MS analysis; type: ADME, organism-based; conditions: in vivo
[5] = Tmax in ICR mouse at 30 mg/kg, po measured after 24 hrs by LC-MS/MS analysis; type: ADME, organism-based; conditions: in vivo
[6] = Cmax in ICR mouse at 30 mg/kg, po measured after 24 hrs by LC-MS/MS analysis; type: ADME, organism-based; set-up: time 24 hrs, dose 30 mg/kg, route po; conditions: in vivo
[7] = AUClast in ICR mouse at 30 mg/kg, po measured after 24 hrs by LC-MS/MS analysis; type: ADME, organism-based; set-up: dose 30 mg/kg, time 24 hrs, route po; conditions: in vivo
[8] = Metabolic stability in human liver microsomes assessed as half life; type: ADME, Microsome
[9] = Metabolic stability in rat liver microsomes assessed as half life; type: ADME, Microsome
[10] = Metabolic stability in mouse liver microsomes assessed as half life; type: ADME, Microsome
[11] = Metabolic stability in human liver microsomes assessed as intrinsic clearance; type: ADME, Microsome
[12] = Metabolic stability in rat liver microsomes assessed as intrinsic clearance; type: ADME, Microsome
[13] = Metabolic stability in mouse liver microsomes assessed as intrinsic clearance; type: ADME, Microsome
[14] = Toxicity in ICR mouse assessed as decrease in serum total cholesterol level at 30 mg/kg, po administered as single dose measured after 24 hrs by automated biochemical analyzer; type: organism-based; set-up: scale not given: the % may be the effect or the level left; conditions: in vivo
Mus musculus [15] = experiment: Anti-NASH activity in high-fat diet and CCl4-induced nonalcoholic steatohepatitis C57BL/6J mouse assessed as reduction in col-1A1 gene expression in liver at 3 to 10 mg/kg, po once daily and measured after 48 hrs […]; type: functional, organism-based; conditions: dose 3-10 mg/kg
[16] = Metabolic stability in dog liver microsomes assessed as half life; type: ADME, Canis lupus familiaris, Microsome
[17] = Metabolic stability in monkey liver microsomes assessed as half life; type: ADME, Macaca mulatta, Microsome; conditions: rhesus monkey
[18] = Metabolic stability in monkey liver microsomes assessed as intrinsic clearance; type: ADME, Macaca mulatta, Microsome; conditions: rhesus monkey
[19] = Half life in ICR mouse serum at 10 mg/kg, po measured after 24 hrs by LC-MS/MS analysis; type: ADME, organism-based
[20] = Tmax in ICR mouse serum at 10 mg/kg, po measured after 24 hrs by LC-MS/MS analysis; type: ADME, organism-based
[21] = Tmax in ICR mouse liver at 10 mg/kg, po measured after 24 hrs by LC-MS/MS analysis; type: ADME, organism-based
[22] = Cmax in ICR mouse serum at 10 mg/kg, po measured after 24 hrs by LC-MS/MS analysis; type: ADME, organism-based; set-up: dose 10 mg/kg, time 24 hrs, route po
[23] = Cmax in ICR mouse liver at 10 mg/kg, po measured after 24 hrs by LC-MS/MS analysis; type: ADME, organism-based; set-up: dose 10 mg/kg, time 24 hrs, route po
[24] = AUClast in ICR mouse serum at 10 mg/kg, po measured after 24 hrs by LC-MS/MS analysis; type: ADME, organism-based; set-up: time 24 hrs, dose 10 mg/kg, route po
[25] = Toxicity in ICR mouse assessed as decrease in serum total cholesterol level at 3 mg/kg, po administered as single dose measured after 24 hrs by automated biochemical analyzer; type: organism-based; set-up: scale not given: the % may be the effect or the level left; conditions: in vivo
[26] = Toxicity in ICR mouse assessed as decrease in serum total cholesterol level at 10 mg/kg, po administered as single dose measured after 24 hrs by automated biochemical analyzer; type: organism-based; set-up: scale not given: the % may be the effect or the level left; conditions: in vivo
[27] = Toxicity in ICR mouse assessed as decrease in serum total LDL-cholesterol level at 3 mg/kg, po administered as single dose measured after 24 hrs by automated biochemical analyzer; type: organism-based; set-up: scale not given: the % may be the effect or the level left; conditions: in vivo
[28] = Toxicity in ICR mouse assessed as decrease in serum total LDL-cholesterol level at 10 mg/kg, po administered as single dose measured after 24 hrs by automated biochemical analyzer; type: organism-based; set-up: scale not given: the % may be the effect or the level left; conditions: in vivo
[29] = Hepatotoxicity in ICR mouse assessed as upregulation of Dio1 mRNA expression in liver by measuring fold change at 3 to 10 mg/kg, po administered as single dose by qRT-PCR analysis; type: toxicity, organism-based; conditions: in vivo, dose 3-10 mg/kg
[30] = Hepatotoxicity in ICR mouse assessed as upregulation of THRSP mRNA expression in liver by measuring fold change at 3 to 10 mg/kg, po administered as single dose by qRT-PCR analysis; type: toxicity, organism-based; conditions: in vivo, dose 3-10 mg/kg
[31] = Hepatotoxicity in ICR mouse assessed as upregulation of Me1 mRNA expression in liver by measuring fold change at 3 to 10 mg/kg, po administered as single dose by qRT-PCR analysis; type: toxicity, organism-based; conditions: in vivo, dose 3-10 mg/kg
Mus musculus [32] = experiment: Anti-NASH activity in high-fat diet and CCl4-induced nonalcoholic steatohepatitis C57BL/6J mouse assessed as decrease in serum total cholesterol level administered orally once daily for 6 weeks; type: functional, organism-based; conditions: dose 3-10 mg/kg, route po
Mus musculus [33] = experiment: Anti-NASH activity in high-fat diet and CCl4-induced nonalcoholic steatohepatitis C57BL/6J mouse assessed as decrease in serum LDL-cholesterol level administered orally once daily for 6 weeks; type: functional, organism-based; conditions: dose 3-10 mg/kg, route po
[34] = Cardiotoxicity in ICR mouse assessed as changes in Myh6 mRNA expression in heart at 3 to 10 mg/kg, po administered as single dose by qRT-PCR analysis; type: toxicity, organism-based; conditions: in vivo, dose 3-10 mg/kg
[35] = Cardiotoxicity in ICR mouse assessed as changes in Myh7 mRNA expression in heart at 3 to 10 mg/kg, po administered as single dose by qRT-PCR analysis; type: toxicity, organism-based; conditions: in vivo, dose 3-10 mg/kg
[36] = Cardiotoxicity in ICR mouse assessed as changes in Myh6/Myh7 ratio in heart at 3 to 10 mg/kg, po administered as single dose by qRT-PCR analysis; type: toxicity, organism-based; conditions: in vivo, dose 3-10 mg/kg
Mus musculus [37] = experiment: Anti-NASH activity in high-fat diet and CCl4-induced nonalcoholic steatohepatitis C57BL/6J mouse assessed as decrease in liver steatosis at 3 to 10 mg/kg, po once daily and measured after 48 hrs by hematoxylin and eosin staining based microscopic analysis; type: functional, organism-based; conditions: dose 3-10 mg/kg
Mus musculus [38] = experiment: Anti-NASH activity in high-fat diet and CCl4-induced nonalcoholic steatohepatitis C57BL/6J mouse assessed as decrease in inflammation score at 3 to 10 mg/kg, po once daily and measured after 48 hrs by hematoxylin and eosin staining based microscopic analysis; type: functional, organism-based; conditions: dose 3-10 mg/kg
Mus musculus [39] = experiment: Anti-NASH activity in high-fat diet and CCl4-induced nonalcoholic steatohepatitis C57BL/6J mouse assessed as decrease in NAFLD activity score at 3 to 10 mg/kg, po once daily and measured after 48 hrs by hematoxylin and eosin staining based microscopic analysis; type: functional, organism-based; conditions: dose 3-10 mg/kg
Mus musculus [40] = experiment: Anti-NASH activity in high-fat diet and CCl4-induced nonalcoholic steatohepatitis C57BL/6J mouse assessed as reduction in liver fibrosis area at 3 to 10 mg/kg, po once daily and measured after 48 hrs by sirius red staining based assay; type: functional, organism-based; conditions: dose 3-10 mg/kg

CCn1c(=O)ccc2c1ccn2-c1c(Cl)cc(-n2nc(C#N)c(=O)[nH]c2=O)cc1Cl
EC50 [1]: 50 nM
EC50 [2]: 20 nM
Ratio [3]: 3.8

CC(C)n1c(=O)ccc2c1ccn2-c1c(Cl)cc(-c2n[nH]c(=O)[nH]c2=O)cc1Cl
EC50 [1]: 40 nM
EC50 [2]: 40 nM
Ratio [3]: 1

Cc1cc2c(ccn2-c2c(Cl)cc(-n3nc(C#N)c(=O)[nH]c3=O)cc2Cl)cc1O
EC50 [1]: > 1200 nM
EC50 [2]: > 3700 nM

CC(C)n1c(=O)ccc2c1ccn2-c1c(Cl)cc(NC(=O)CC(=O)O)cc1Cl
EC50 [1]: 440 nM
EC50 [2]: 210 nM
Ratio [3]: 3.3

Cn1c(=O)ccc2c1ccn2-c1c(Cl)cc(-n2nc(C#N)c(=O)[nH]c2=O)cc1Cl
EC50 [1]: 740 nM
EC50 [2]: 200 nM
Ratio [3]: 6
half-life [4]: 7 h
Tmax [5]: 3 h
Cmax [6]: 2170 ng/mL
AUC(0-t) at 24 h [7]: 26000 ng·h/mL
half-life [8]: 3.07 h
half-life [9]: 3.43 h
half-life [10]: 11.6 h
CLH [11]: 11.4 mL/min/g
CLH [12]: 10.2 mL/min/g
CLH [13]: 3 mL/min/g
Activity [14]: 33.5%

CC(C)n1c(=O)ccc2c1ccn2-c1c(Cl)cc(-n2nc(C#N)c(=O)[nH]c2=O)cc1Cl
Activity (Mus musculus [15]): Active
EC50 [1]: 220 nM
EC50 [2]: 30 nM
half-life [4]: 8.7 h
Tmax [5]: 8 h
Cmax [6]: 2830 ng/mL
AUC(0-t) at 24 h [7]: 37500 ng·h/mL
half-life [8]: 2.98 h
half-life [9]: 3.48 h
half-life [10]: 4.55 h
half-life [16]: 0.25 h
half-life [17]: 4.38 h
CLH [11]: 11.7 mL/min/g
CLH [12]: 10 mL/min/g
CLH [13]: 7.7 mL/min/g
CLH [18]: 8 mL/min/g
half-life [19]: 4.4 h
Tmax [20]: 6 h
Tmax [21]: 4 h
Cmax [22]: 1200 ng/mL
Cmax [23]: 99000 ng/g
AUC(0-t) at 24 h [24]: 12100 ng·h/mL
Activity [14]: 33%
Activity [25]: 30.7%
Activity [26]: 33.7%
Activity [27]: 53.6%
Activity [28]: 62.1%
fold change (FC) [29]: 19
fold change (FC) [30]: 16
fold change (FC) [31]: 3
Activity (Mus musculus [32]): Dose-Dependent Effect
Activity (Mus musculus [33]): Dose-Dependent Effect
Activity [34]: Non-Toxic
Activity [35]: Non-Toxic
Activity [36]: Non-Toxic
Activity (Mus musculus [37]): Active
Activity (Mus musculus [38]): Active
Activity (Mus musculus [39]): Active
Activity (Mus musculus [40]): Active

N#Cc1nn(-c2cc(Cl)c(-n3ccc4c3ccc(=O)n4C3CCC3)c(Cl)c2)c(=O)[nH]c1=O
EC50 [1]: 120 nM
EC50 [2]: 20 nM
Ratio [3]: 7.5

COc1ccc2c(ccn2-c2c(Cl)cc(-n3nc(C#N)c(=O)[nH]c3=O)cc2Cl)c1
EC50 [1]: > 11000 nM
EC50 [2]: > 33000 nM

N#Cc1nn(-c2cc(Cl)c(-n3ccc4c3ccc(=O)n4CC(F)(F)F)c(Cl)c2)c(=O)[nH]c1=O
EC50 [1]: 430 nM
EC50 [2]: 70 nM
Ratio [3]: 7.4
